Test results as given in paper PMC9869559, “The Weimberg pathway: an alternative for Myceliophthora thermophila to utilize D-xylose” (Biotechnology for Biofuels and Bioproducts, 2023).

Columns and labels:
[1] = molecular target: T1, Trxyd1 (D-xylose dehydrogenase, XDH) (Trichoderma reesei, UniProt G0R8G7); experiment: NAD+ or NADP+ reduction at […] nm, crude mycelial extract of overexpressing strain; assay type: biochemical; details: 100 mM D-xylose, 2 mM NAD+ or NADP+, 2 mM MgCl2, 100 mM Tris-HCl pH 8.0, 30 °C
T1 construct: gene TRIREDRAFT_53673; full-length gene from cDNA, inserted at pck locus of M. thermophila JG207 delta-Mtxyl1 (DF1309); crude mycelial extract
T1 sequence (G0R8G7 1-391): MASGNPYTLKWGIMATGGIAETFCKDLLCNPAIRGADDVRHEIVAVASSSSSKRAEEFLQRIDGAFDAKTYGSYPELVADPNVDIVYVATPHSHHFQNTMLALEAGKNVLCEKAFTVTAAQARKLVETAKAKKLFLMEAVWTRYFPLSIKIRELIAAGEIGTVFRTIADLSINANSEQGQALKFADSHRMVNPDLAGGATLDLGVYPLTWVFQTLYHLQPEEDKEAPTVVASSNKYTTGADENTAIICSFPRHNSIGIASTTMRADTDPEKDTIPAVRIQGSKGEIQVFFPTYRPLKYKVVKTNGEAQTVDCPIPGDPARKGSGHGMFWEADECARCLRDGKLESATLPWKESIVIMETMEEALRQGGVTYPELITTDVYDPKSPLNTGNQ

[2] = molecular target: T2, Mtxyd1 (native D-xylose dehydrogenase, XDH) (Thermothelomyces thermophilus, UniProt G2QN15); experiment: NADP+ reduction at […] nm, crude mycelial extract of overexpressing strain; assay type: biochemical; details: 100 mM D-xylose, 2 mM NADP+, 2 mM MgCl2, 100 mM Tris-HCl pH 8.0, 30 °C
T2 construct: gene MYCTH_112471; full-length native gene from cDNA, inserted at pck locus of M. thermophila JG207 delta-Mtxyl1 (DF1310); crude mycelial extract
T2 sequence (G2QN15 1-395): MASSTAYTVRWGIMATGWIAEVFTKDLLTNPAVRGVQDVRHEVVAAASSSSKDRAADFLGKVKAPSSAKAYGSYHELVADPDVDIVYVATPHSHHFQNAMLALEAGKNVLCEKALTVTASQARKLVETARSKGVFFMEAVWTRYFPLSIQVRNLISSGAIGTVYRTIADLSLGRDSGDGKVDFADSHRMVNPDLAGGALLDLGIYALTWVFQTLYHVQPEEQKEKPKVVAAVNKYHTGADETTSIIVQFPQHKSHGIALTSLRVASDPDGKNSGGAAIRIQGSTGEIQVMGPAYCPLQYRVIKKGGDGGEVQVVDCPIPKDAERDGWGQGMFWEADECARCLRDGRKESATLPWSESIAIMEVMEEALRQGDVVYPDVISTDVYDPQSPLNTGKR

Compound | specific activity [1] | specific activity [2]
OC1OC[C@@H](O)[C@H](O)[C@H]1O (stereo partly drawn) [D-xylose] | The enzymatic activity of XDH in strains DF1309 and DF1310 was verified | XDH encoded by endogenous Mtxyd1 owned the highest activity
NC(=O)c1ccc[n+]([C@@H]2O[C@H](COP(=O)(O)OP(=O)(O)OC[C@H]3O[C@@H](n4cnc5c(N)ncnc54)[C@H](OP(=O)(O)O)[C@@H]3O)[C@@H](O)[C@H]2O)c1 [NADP^+] |  | When using NADP^+ as a cofactor, XDH encoded by endogenous Mtxyd1 owned the highest activity
